One may read the MIC as the least concentration at which growth counts as inhibited. Higher therefore signals a need for much substance. The fraction remaining is what is left of the initial amount, in per cent. Read a high fraction remaining as greater stability.

Converted amounts (≈) assume the structure as drawn. A value given as a limit tells only on which side of the number the result lay.

The text below walks through data of patent US5886172A, “Carbapenem-3-carboxylic acid ester derivatives” (Lederle (Japan) Ltd., priority 1995, dated 1999).

The subject of one data set is S. aureus MS353. The data set is described as follows: Antibacterial activity, agar plate dilution method (MIC). In kind it is cell-based. The settings on record: Staphylococcus aureus, 37° C., 18 hours. The method, then:
(§1) Antibacterial activity was tested by using an agar plate dilution method in accordance with the standard method of the Japanese Chemotherapy Society [Chemotherapy, vol. 29, 76-79 (1981)].
(§2) Mueller-Hinton (MH) agar liquid media of the test microorganisms were cultured overnight at 37° C. and the resultant culture media were diluted with a buffered saline gelatin (BSG) solution to contain approximately 10^5 cells of the test microorganisms per milliliter. Then, about 5 microliters each of the diluted solutions were inoculated on MH agar media containing the test compound by using a microplanter.
(§3) The test microorganism strains used in this test were all standard ones. The test compound used herein was Compound (22) obtained in Preparation 6, i.e., the compound of formula (II), which is the active metabolite of the compounds of formula (I).

The next data set relates to S. aureus Terajima. The data set is described as above. The data set is classed as cell-based. The settings on record: Staphylococcus aureus, 37° C., 18 hours. As to the method:
as §1, §2, §3

In another data set the test system is M. morganii IFO 3848. Described as above. The data set is classed as cell-based. As to conditions: Morganella morganii, IFO3848, 37° C., 18 hours. As to the method:
as §1, §2, §3

The next data set concerns S. enteritidis G14. The data set is described as above. The data set is classed as cell-based. The settings on record: Salmonella enterica, 37° C., 18 hours. The method, then:
as §1, §2, §3

A further data set deals with K. pneumoniae PCI-602. The description is as above. The settings on record: Klebsiella pneumoniae, PCI602, 37° C., 18 hours. In kind it is cell-based. As to the method:
as §1, §2, §3

The next data set concerns P. vulgaris HX-19. The description is as above. In kind it is cell-based. The settings on record: Proteus vulgaris, HX19, 37° C., 18 hours. The method, then: as §1, §2, §3
The test system of a further data set is P. mirabilis IFO 3849. The description is as above. In kind it is cell-based. The settings on record: Proteus mirabilis, IFO3849, 37° C., 18 hours. As to the method:
as §1, §2, §3

The subject of another data set is P. rettgeri IFO 3850. The description is as above. The settings on record: Providencia rettgeri, IFO3850, 37° C., 18 hours. The data set is classed as cell-based. As to the method: as §1, §2, §3
Another data set concerns P. vulgaris OX-19. The data set is described as above. The data set is classed as cell-based. As to conditions: Proteus vulgaris, OX19, 37° C., 18 hours. The method, then: as §1, §2, §3
In a further data set the test system is S. aureus FDA209P JC-1. The data set is described as above. In kind it is cell-based. The settings on record: Staphylococcus aureus, 37° C., 18 hours. The method, then: as §1, §2, §3
The next data set has as its system E. coli K-12 C600. Described as above. As to conditions: Escherichia coli, K12C600, 37° C., 18 hours. In kind it is cell-based. The method, then: as §1, §2, §3
A further data set deals with S. pyogenes Cook. Described as above. In kind it is cell-based. The settings on record: Streptococcus pyogenes, 37° C., 18 hours. As to the method: as §1, §2, §3
Another data set relates to M. luteus ATCC 9341. Described as above. The data set is classed as cell-based. The settings on record: Micrococcus luteus, ATCC9341, 37° C., 18 hours. As to the method:
as §1, §2, §3

The test system of the next data set is E. aerogenes ATCC 13048. The description is as above. In kind it is cell-based. The settings on record: Klebsiella aerogenes, ATCC13048, 37° C., 18 hours. As to the method: as §1, §2, §3
The subject of the next data set is S. typhi 901. Described as above. In kind it is cell-based. As to conditions: Salmonella enterica, 18 h. As to the method:
as §1, §2, §3

In another data set the test system is S. paratyphi 1015. The data set is described as above. In kind it is cell-based. The settings on record: Salmonella enterica, 18 h. As to the method: as §1, §2, §3
In the next data set the test system is S. typhimurium 11D971. The data set is described as above. The data set is classed as cell-based. As to conditions: Salmonella enterica, 37° C., 18 hours. As to the method: as §1, §2, §3
Another data set has as its system S. schottmuelleri 8006. The description is as above. The data set is classed as cell-based. As to conditions: 37° C., 18 hours. The method, then:
as §1, §2, §3

In the next data set the test system is S. marcescens IAM 1184. Described as above. In kind it is cell-based. The settings on record: Serratia marcescens, IAM1184, 37° C., 18 hours. The method, then:
as §1, §2, §3

In the next data set the test system is B. subtilis ATCC 6633. Described as above. In kind it is cell-based. The settings on record: Bacillus subtilis, ATCC6633, 37° C., 18 hours. The method, then:
as §1, §2, §3

A further data set has as its system E. cloacae 963. The data set is described as above. The data set is classed as cell-based. As to conditions: Enterobacter cloacae, 37° C., 18 hours. The method, then: as §1, §2, §3
The test system of a further data set is E. coli NIHJ JC-2. Described as above. The settings on record: Escherichia coli, NIHJJC2, 37° C., 18 hours. In kind it is cell-based. As to the method:
as §1, §2, §3

Data set [1] is described as follows: Stability Test (storage stability, residual activity by HPLC). The data set is classed as physicochemical. The settings on record: for Residual activity, initial day: assumed to be 100%; for Residual activity, 1 month: 43800 min; for Residual activity, 3 months: 131400 min; for Retention of potency on storage: conclusion from Table 2; for Residual activity, 1 month / remaining at 730 h: 1 month. As to the method: Storage stability of (1-methylcyclohexane-carboxy)methyl (1R,5S,6S)-2-[(1-(1,3-thiazolin-2-yl)azetidin-3-yl)thio]-6-[(R)-1-hydroxyethyl]-1-methyl-carbapen-2-em-3-carboxylate [Compound (24)] was tested in comparison with its amorphous form and (cyclohexanecarboxy)methyl (1R,5S,6S)-2-[(1-(1,3-thiazolin-2-yl)azetidin-3-yl)thio]-6-[(R)-1-hydroxyethyl]-1-methyl-carbapen-2-em-3-carboxylate [Compound (C)], which is disclosed in European Patent Publication 632,039 A1.
Each compound in an amount of 20 mg was put in a glass bottle, and left to stand for 3 months in a constant-temperature chamber at 40° C. and at 40° C. /75% of humidity. The activity of each compound was assayed by HPLC after 1 month and 3 months, respectively. Assuming the activity at the beginning (initial day) to be 100%, the decrease in the activity is shown by percent residual activity in Table 2.

[2] abbreviates: 40° C., HPLC, initial day = 100%.
Where [3] appears, read: 40° C., 3 months, HPLC, initial day = 100%.
Where [4] appears, read: solid storage, 40° C./75% humidity, HPLC, initial day = 100%.

Take `C[C@@H](O)[C@H]1C(=O)N2C(C(=O)O)=C(SC3CN(C4=NCCS4)C3)[C@H](C)[C@H]12` [Compound (22), (1R,5S,6S)-2-[(1-(thiazolin-2-yl)azetidin-3-yl)thio]-6-[(R)-1-hydroxyethyl]-1-methyl-carbapen-2-em-3-carboxylic acid]: the MIC is not above 0.006 µg/mL against S. aureus MS353; not above 0.006 µg/mL in the data set with S. aureus Terajima; 0.39 µg/mL (≈ 1.02 µM) with M. morganii IFO 3848; 0.39 µg/mL (≈ 1.02 µM) in the data set with S. enteritidis G14; 0.013 µg/mL (≈ 0.0339 µM) with K. pneumoniae PCI-602; 0.1 µg/mL (≈ 0.261 µM) in the data set with P. vulgaris HX-19. The MIC was 0.39 µg/mL (≈ 1.02 µM) against P. mirabilis IFO 3849; 0.39 µg/mL (≈ 1.02 µM) with P. rettgeri IFO 3850; 0.1 µg/mL (≈ 0.261 µM) with P. vulgaris OX-19; 0.013 µg/mL (≈ 0.0339 µM) with S. aureus FDA209P JC-1; 0.1 µg/mL (≈ 0.261 µM) against E. coli K-12 C600; not above 0.006 µg/mL in the data set with S. pyogenes Cook. Further, the MIC in the data set with M. luteus ATCC 9341 is 0.2 µg/mL (≈ 0.522 µM); against E. aerogenes ATCC 13048, 0.1 µg/mL (≈ 0.261 µM); in the data set with S. typhi 901, not above 0.006 µg/mL; in the data set with S. paratyphi 1015 it was 0.05 µg/mL (≈ 0.13 µM); against S. typhimurium 11D971, 0.025 µg/mL (≈ 0.0652 µM); in the data set with S. schottmuelleri 8006 it was 0.025 µg/mL (≈ 0.0652 µM). The minimum inhibitory concentration (MIC) against S. marcescens IAM 1184 came to 0.05 µg/mL (≈ 0.13 µM); against B. subtilis ATCC 6633, 0.025 µg/mL (≈ 0.0652 µM); in the data set on E. cloacae 963, 0.05 µg/mL (≈ 0.13 µM); in the data set on E. coli NIHJ JC-2, 0.013 µg/mL (≈ 0.0339 µM).

`C[C@@H](O)[C@H]1C(=O)N2C(C(=O)OCOC(=O)C3(C)CCCCC3)=C(SC3CN(C4=NCCS4)C3)[C@H](C)[C@H]12` [Compound (24) (Amorphous), (1-methylcyclohexane-carboxy)methyl (1R,5S,6S)-2-[(1-(1,3-thiazolin-2-yl)azetidin-3-yl)thio]-6-[(R)-1-hydroxyethyl]-1-methyl-carbapen-2-em-3-carboxylate]: the “Residual activity, initial day” value in data set [1] (40° C./75% humidity) and in [1] (40° C.) was 100% each time. The “Residual activity, 1 month” value in data set [1] (setting [2]) is 67.5%. Further, the “Residual activity, 3 months” value in data set [1] (setting [3]) turned out to be 36.8%. The “Retention of potency on storage” value in data set [1] (listed as amorphous form) is given as “rapidly loses its potency”.

With `C[C@@H](O)[C@H]1C(=O)N2C(C(=O)OCOC(=O)C3(C)CCCCC3)=C(SC3CN(C4=NCCS4)C3)[C@H](C)[C@H]12` [Compound (24) (Crystalline), (1-methylcyclohexane-carboxy)methyl (1R,5S,6S)-2-[(1-(1,3-thiazolin-2-yl)azetidin-3-yl)thio]-6-[(R)-1-hydroxyethyl]-1-methyl-carbapen-2-em-3-carboxylate], the “Residual activity, initial day” value in data set [1] (40° C./75% humidity) and in data set [1] (40° C.) was 100% throughout. In [1] (setting [2]), the “Residual activity, 1 month” value turned out to be 99.4%. For the same compound, in data set [1] (setting [3]), the “Residual activity, 3 months” value stood at 99.2%. In addition, the “Retention of potency on storage” value in data set [1] (listed as crystalline form of Compound (24)) is given as “retains its potency over a long period of time”. In [1] (setting [4]), this compound registered a fraction remaining at 730 h of 98.9%.

`C[C@@H](O)[C@H]1C(=O)N2C(C(=O)OCOC(=O)C3CCCCC3)=C(SC3CN(C4=NCCS4)C3)[C@H](C)[C@H]12` [Compound (C) (Crystalline), (cyclohexanecarboxy)methyl (1R,5S,6S)-2-[(1-(1,3-thiazolin-2-yl)azetidin-3-yl)thio]-6-[(R)-1-hydroxyethyl]-1-methyl-carbapen-2-em-3-carboxylate, reference compound]: the “Residual activity, initial day” value in [1] (40° C./75% humidity) and in data set [1] (40° C.) was 100% each time. Also, the fraction remaining at 730 h in [1] (setting [4]) is 73.7%; in data set [1] (solid storage, 40° C., HPLC, initial day = 100%), 98.9%. The same compound came in with a fraction remaining at 2190 h in [1] (solid storage, 40° C., 3 months, HPLC, initial day = 100%) of 94.2%.
